Reference: the supplement of paper PMC10307832

Columns and labels:
Assay in all cases: relative viability (nuclei count vs DMSO), 5 days (fraction); higher = more cells survive
[1] = compound: CC[C@@H](C)CNCC(=O)N1CCC2=C([C@@H]1COC3=CC=CC(=C3)C)C=CS2 [RU-SKI 43] + C[C@@H](Oc1cc(-c2cnn(C3CCNCC3)c2)cnc1N)c1c(Cl)ccc(F)c1Cl [Crizotinib] (partner 1 µM)
Outline: (§1)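 After 5 days of treatment, lung cancer cells in 1536-well plates were fixed and stained in a single step (final 0.05% Triton X-100, 1% formaldehyde, 1 ug/ml Hoechst) and their nuclei counted on 4× images. Treatment had been applied by pin tool the day after seeding as one drug alone or as a fixed anchor-drug dose with five library-drug doses (not always all listed) in √10 steps. Relative viability is the nuclei count of treated wells divided by that of vehicle wells, and values are medians of duplicate plates.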

[2] = compound: CC[C@@H](C)CNCC(=O)N1CCC2=C([C@@H]1COC3=CC=CC(=C3)C)C=CS2 [RU-SKI 43] + C[C@]1(O)C[C@@H](c2nc(-c3ccc4ccc(-c5ccccc5)nc4c3)c3c(N)nccn32)C1 [Linsitinib] (partner 1 µM)
Outline: as §1

[3] = compound: CC[C@@H](C)CNCC(=O)N1CCC2=C([C@@H]1COC3=CC=CC(=C3)C)C=CS2 [RU-SKI 43] + Cc1nc(NC(=O)N2CCC[C@H]2C(N)=O)sc1-c1ccnc(C(C)(C)C(F)(F)F)c1 [Alpelisib] (partner 2 µM)
Outline: as §1

[4] = compound: CC[C@@H](C)CNCC(=O)N1CCC2=C([C@@H]1COC3=CC=CC(=C3)C)C=CS2 [RU-SKI 43] + O=C(c1cc(Cc2n[nH]c(=O)c3ccccc23)ccc1F)N1CCN(C(=O)C2CC2)CC1 [Olaparib] (partner 8 µM)
Outline: as §1

Cell Line	relative viability ([1]; first compound 0.1 µM)	relative viability ([1]; first compound 0.3162 µM)	relative viability ([1]; first compound 1 µM)	relative viability ([1]; first compound 3.162 µM)	relative viability ([1]; first compound 10 µM)	relative viability ([2]; first compound 0.1 µM)	relative viability ([2]; first compound 0.3162 µM)	relative viability ([2]; first compound 1 µM)	relative viability ([2]; first compound 3.162 µM)	relative viability ([2]; first compound 10 µM)	relative viability ([3]; first compound 0.1 µM)	relative viability ([3]; first compound 0.3162 µM)	relative viability ([3]; first compound 1 µM)	relative viability ([3]; first compound 3.162 µM)	relative viability ([3]; first compound 10 µM)	relative viability ([4]; first compound 0.1 µM)	relative viability ([4]; first compound 0.3162 µM)	relative viability ([4]; first compound 1 µM)	relative viability ([4]; first compound 3.162 µM)	relative viability ([4]; first compound 10 µM)
NCI-H2085	0.881	0.709	0.805	0.783	0.761	0.929	0.875	1.01	0.917	0.772	0.93	1.02	1.09	1.01	0.845	0.765	0.681	0.717	0.741	0.785
NCI-H2087	0.837	1.12	0.915	0.783	0.733	1.04	1.08	0.95	0.853	1.02	1	1.4	1.12	1.11	0.788	0.481	0.63	0.669	0.616	0.559
NCI-H2126	1.01	1.24	1.06	1.06	1.01	0.683	0.698	0.717	0.762	0.702	0.769	0.82	0.825	0.831	0.727	0.903	1.07	0.936	0.845	0.865
NCI-H2228	0.498	0.416	0.448	0.579	0.306	0.858	0.507	0.828	0.885	0.427	0.667	0.768	1.08	0.704	0.423	0.6	0.858	0.642	0.638	0.654
NCI-H2347	0.745	0.568	0.778	0.67	0.735	1	1.19	1.07	0.94	1.01	1.1	1.19	1.13	1.15	0.949	0.547	0.499	0.553	0.504	0.569
NCI-H2405	0.863	0.933	0.811	0.852	0.807	0.866	0.941	0.732	0.857	0.808	0.8	0.787	0.651	0.789	0.721	0.835	0.885	0.905	0.855	0.842
NCI-H3122	0.256	0.257	0.249	0.287	0.244	0.992	1.05	1.09	1.12	1.08	0.771	0.7	0.743	0.935	0.734	0.623	0.64	0.663	0.649	0.579
PC-3 [JPC-3]	0.918	1.14	0.998	0.922	0.963	0.885	0.956	1.03	1.02	0.866	0.988	1.03	1.11	1.08	0.998	1.09	1.3	1.2	1.2	1.06
PC-14	0.827	0.891	0.92	0.804	0.749	0.962	1	1.05	1.07	0.939	0.9	0.91	1.04	0.938	0.956	0.22	0.174	0.294	0.263	0.401
RERF-LC-KJ	0.904	0.86	0.772	0.862	0.77	0.946	1.04	0.915	0.943	0.895	0.826	0.98	0.734	0.821	0.802	0.818	1.04	0.914	0.876	0.811
SK-LU-1	0.799	1.02	0.969	0.971	0.898	1.06	1.22	1.26	1.18	0.917	0.931	1.31	1.25	1.13	1.01	0.449	0.397	0.531	0.46	0.44
SK-MES-1	0.862	1.07	1.06	1.09	0.98	1.03	1.1	1.18	1.04	1.01	0.893	0.879	1.01	1.15	0.892	0.643	0.775	0.762	0.737	0.702
SW 1573	1	0.767	0.799	0.768	0.723	0.884	0.824	0.841	0.692	0.688	0.884	0.937	0.695	0.793	0.637	0.442	0.479	0.51	0.435	0.41
